Laboratory results from PubChem BioAssay AID1963449 (Molecular Pharmacology Branch, DTP, NCI, 2024).
Values joined by “and” are separate entries in the source; they are usually repeats but may differ in a detail not shown here. Identical values can stand only once.

Tested on: 596521-263-R-J1-PDC complex spheroid growth
Test: Anticancer human tumor 596521-263-R-J1-PDC patient-derived soft tissue sarcoma cell line growth inhibition [Asc]
Conditions: for viability, T/C: stronger effect = lower value
Procedure: Multicellular complex tumor spheroid response to apoptosis pathway targeting inhibitors Alrizomadlin, Pelcitoclax, and Dasminapant in combination with a variety of drugs and investigational agents in selected tumor cell lines
The MDM2 inhibitor alrizomadlin, the Bcl-2/Bcl-xL inhibitor pelcitoclax, and the IAPs inhibitor dasminapant were evaluated both individually and in combination with standard of care and investigational anticancer small molecules within a complex spheroid model of solid tumors. . Complex spheroids include a stromal component modeled by human endothelial cells (HUVEC) and fibroblasts modeled by human mesenchymal stem cells (MSCs). The concentration ranges selected for each drug and investigational agent were based upon clinically achievable concentrations if the clinical Cmax of the agent was known.
Compounds. The drugs and investigational agents: alrizomadlin (APG-115; NSC831270), pelcitoclax (APG-1252; NSC835773), dasminapant (APG-1387;NSC834197), TAK-243 (NSC785004), copanlisib (NSC809693), olaparib (NSC753686), talazoparib (NSC767125), cobimetinib (NSC 768068), eltanexor (KPT-8602, NSC 794443), abemaciclib (NSC 768073), sotorasib (NSC818433), adagrasib (NSC 831453), MRTX-1133 (NSC 836407), Iadademestat (ORY1001, NSC 806812), and RMC-4630 (NSC839698), were obtained from the NCI Developmental Therapeutics Program Chemical Repository. The FDA-approved anticancer drug set is available from the Developmental Therapeutics Program at https://dtp.cancer.gov/organization/dscb/obtaining/available plates.htm. […] The stock solutions were prepared in dimethyl sulfoxide (DMSO, Sigma-Aldrich, St. Louis, MO, cat. D2650) at 800-fold the tested concentration and stored at -70 degrees C prior to their use. All drugs and investigational agents were tested over a range starting from a high concentration at or near the clinical Cmax and decreasing in half-log increments. If the clinical Cmax for an agent had not been determined, the highest concentration tested was 10 microM.
The patient-derived cancer (PDC) cell lines include five colon adenocarcinomas: 186277-243-T-J2-PDC, 616215-338-R-J1-PDC, 439559-082-T-J2-PDC, 463943-066-T-J2-PDC, and 519858-162-T-J1-PDC; three pancreatic carcinomas: 323965-272-R-J2-PDC, 521955-158-R6-J3-PDC, and 521955-158-R2-J5-PDC; two uterine sarcomas: 327498-152-R-J2-PDC and 993429-296-R-J1-PDC; two rhabdomyosarcomas: 755483-174-R-J1-PDC and 772245-204-R-J1-PDC; two soft tissue sarcomas: 126254-015-R-J1-PDC and 494315-158-R-J1-PDC; two malignant fibrous histiocytomas: 317291-083-R-J1-PDC and 596521-263-R-J1-PDC; two breast carcinomas: 171881-019-R-J1-PDC and 885512-296-R-J2-PDC; and one ovarian carcinoma: 6556581-035-R-J-PDC were obtained from the NCI PDMR, (https://pdmr.cancer.gov). The established cell lines HSSY-2 synovial sarcoma (RRID:CVCL 8719), SYO-1 synovial sarcoma (RRID:CVCL_7146), MPNST malignant peripheral neural sheath tumor were obtained from the Sloan Kettering Institute. The following established cell lines were purchased from the American Type Culture Collection (ATCC, Manassas, VA), Sor the received from the NCI repository:, PANC-1 pancreatic carcinoma (CRL-1469, RRID:CVCL_0480), OVCAR-5 ovarian carcinoma (RRID:CVCL_1628), OVCAR-8 ovarian carcinoma (RRID:CVCL_1629), , MCF-7 breast carcinoma (CRL-12584, RRID:CVCL_0031), MDA-MB-231 breast carcinoma (CRL-12532, RRID:CVCL_0062), NCI-H1876 small cell lung carcinoma (CRL-5902, RRID:CVCL_1503), NCI-H510A small cell lung carcinoma (HTB-184, RRID:CVCL_1565), NCI-H1417 (CRL-5869, RRID:CVCL_1469), and NCI-H196 small cell lung carcinoma (CRL-5823, RRID:CVCL_1509). Dr. Peter Houghton (Greehey Children's Cancer Research Institute, University of Texas Health Science Center, San Antonio, TX) provided Rh-18 rhabdomyosarcoma (RRID:CVCL_1659). Pooled donor human umbilical vein endothelial cells (HUVEC, Lonza, cat. CC-2519) and human mesenchymal stem cells (hMSC, Lonza, cat. PT-2501) were purchased from Lonza (Walkersville, MD).
Cell Culture. […]

[1] = curve of first compound, second compound 0.00949 µM
[2] = curve of first compound, second compound 0.03 µM
[3] = curve of first compound, second compound 0.0949 µM
[4] = curve of first compound, second compound 0.3 µM
[5] = curve of first compound, second compound 0.949 µM
[6] = curve of first compound, second compound 3 µM
[7] = second compound 0.00949 µM, first compound 0.0316 µM
[8] = second compound 0.00949 µM, first compound 0.1 µM
[9] = second compound 0.03 µM, first compound 0.0316 µM
[10] = second compound 0.03 µM, first compound 0.1 µM
[11] = second compound 0.0949 µM, first compound 0.0316 µM
[12] = second compound 0.0949 µM, first compound 0.1 µM
[13] = second compound 0.3 µM, first compound 0.0316 µM
[14] = second compound 0.3 µM, first compound 0.1 µM
[15] = second compound 0.949 µM, first compound 0.0316 µM
[16] = second compound 0.949 µM, first compound 0.1 µM
[17] = second compound 3 µM, first compound 0.0316 µM
[18] = second compound 3 µM, first compound 0.1 µM
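Also: spheroids exposed to compounds for 7 days.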

**Q.** How did the viability, T/C (compound 0.0316 µM) turn out when `C#Cc1c(F)ccc2cc(O)cc(-c3ncc4c(N5CC6CCC(C5)N6)nc(OCC56CCCN5CC(F)C6)nc4c3F)c12` (stereo not drawn) was run?
**A.** The viability, T/C was 102% and 104% (2×).

**Q.** And the viability, T/C (compound 0.1 µM)?
**A.** Its viability, T/C is 87% and 90.2% and 98.9%.

**Q.** What about the viability, T/C (compound 0.316 µM) of the same compound?
**A.** The viability, T/C was 99.2% and 109% and 98.2%.

**Q.** What about the viability, T/C (compound 1 µM) of the same compound?
**A.** Its viability, T/C is 102% (2×) and 112%.

**Q.** And the viability, T/C (compound 3.16 µM)?
**A.** Its viability, T/C is 100% and 94.5% and 103%.

**Q.** And the viability, T/C (compound 10 µM)?
**A.** Its viability, T/C is 93.4% and 85.1% and 88.1%.

**Q.** What about the IC50 (curve of compound) of the same compound?
**A.** The IC50 was over 10 µM.

**Q.** For `Cc1c(S(C)(=O)=O)c(-c2cc(F)cc(N3CCN(c4ccc(NS(=O)(=O)c5ccc(NC(CCN6CCC(C(=O)OCCCP(=O)(O)O)CC6)CSc6ccccc6)c(S(=O)(=O)C(F)(F)F)c5)cc4)CC3)c2)c(-c2ccc(Cl)cc2)n1C(C)C` (stereo not drawn), which viability, T/C (compound 0.0316 µM) is on record?
**A.** The viability, T/C was 101% [middle of 7 runs].

**Q.** What about the viability, T/C (compound 0.1 µM) of the same compound?
**A.** The viability, T/C was 93.1% [middle of 7 runs].

**Q.** What about the viability, T/C (compound 0.316 µM) of the same compound?
**A.** The viability, T/C was 91.5% [middle of 7 runs].

**Q.** What about the viability, T/C (compound 1 µM) of the same compound?
**A.** The viability, T/C was 77.7% [middle of 7 runs].

**Q.** What about the viability, T/C (compound 3.16 µM) of the same compound?
**A.** Its viability, T/C is 63% [middle of 7 runs].

**Q.** What about the viability, T/C (compound 10 µM) of the same compound?
**A.** The viability, T/C was 55.6% [middle of 7 runs].

**Q.** And the IC50 (compound alone, run of 11/07/2022)?
**A.** Its IC50 is over 10 µM.

**Q.** What does the source list for `Cn1ncnc1[C@H]1c2n[nH]c(=O)c3cc(F)cc(c23)N[C@@H]1c1ccc(F)cc1` + CCN1C(C(=O)NC23CCC(C(=O)O)(CC2)CC3)C(c2cccc(Cl)c2F)C2(C(=O)Nc3cc(Cl)ccc32)C12CCCCC2?
**A.** IC50 [1]: > 0.1 µM; IC50 [2]: > 0.1 µM; IC50 [3]: > 0.1 µM; IC50 [4]: > 0.1 µM; IC50 [5]: > 0.1 µM; IC50 [6]: > 0.1 µM; viability, T/C (second compound 0.00949 µM, first compound 0.000316 µM): 109%; viability, T/C (second compound 0.00949 µM, first compound 0.001 µM): 94.8%; viability, T/C (second compound 0.00949 µM, first compound 0.00316 µM): 96.6%; viability, T/C (second compound 0.00949 µM, first compound 0.01 µM): 91.8%; viability, T/C [7]: 88.4%; viability, T/C [8]: 81.8%; viability, T/C (second compound 0.03 µM, first compound 0.000316 µM): 103%; viability, T/C (second compound 0.03 µM, first compound 0.001 µM): 98.1%; viability, T/C (second compound 0.03 µM, first compound 0.00316 µM): 100%; viability, T/C (second compound 0.03 µM, first compound 0.01 µM): 105%; viability, T/C [9]: 90.1%; viability, T/C [10]: 81.1%; viability, T/C (second compound 0.0949 µM, first compound 0.000316 µM): 104%; viability, T/C (second compound 0.0949 µM, first compound 0.001 µM): 102%; viability, T/C (second compound 0.0949 µM, first compound 0.00316 µM): 106%; viability, T/C (second compound 0.0949 µM, first compound 0.01 µM): 88.7%; viability, T/C [11]: 87.8%; viability, T/C [12]: 78.6%; viability, T/C (second compound 0.3 µM, first compound 0.000316 µM): 104%; viability, T/C (second compound 0.3 µM, first compound 0.001 µM): 99.9%; viability, T/C (second compound 0.3 µM, first compound 0.00316 µM): 110%; viability, T/C (second compound 0.3 µM, first compound 0.01 µM): 108%; viability, T/C [13]: 104%; viability, T/C [14]: 87.3%; viability, T/C (second compound 0.949 µM, first compound 0.000316 µM): 102%; viability, T/C (second compound 0.949 µM, first compound 0.001 µM): 91.2%; viability, T/C (second compound 0.949 µM, first compound 0.00316 µM): 91.2%; viability, T/C (second compound 0.949 µM, first compound 0.01 µM): 92.4%; viability, T/C [15]: 99.4%; viability, T/C [16]: 85.5%; viability, T/C (second compound 3 µM, first compound 0.000316 µM): 76.4%; viability, T/C (second compound 3 µM, first compound 0.001 µM): 78.5%; viability, T/C (second compound 3 µM, first compound 0.00316 µM): 80.6%; viability, T/C (second compound 3 µM, first compound 0.01 µM): 70.3%; viability, T/C [17]: 75.3%; viability, T/C [18]: 65.7%

**Q.** Which results are given for `O=C(c1cc(Cc2n[nH]c(=O)c3ccccc23)ccc1F)N1CCN(C(=O)C2CC2)CC1` + CCN1C(C(=O)NC23CCC(C(=O)O)(CC2)CC3)C(c2cccc(Cl)c2F)C2(C(=O)Nc3cc(Cl)ccc32)C12CCCCC2?
**A.** IC50 [1]: > 10 µM; IC50 [2]: > 10 µM; IC50 [3]: > 10 µM; IC50 [4]: > 10 µM; IC50 [5]: > 10 µM; IC50 [6]: > 10 µM; viability, T/C [7]: 101%; viability, T/C [8]: 87.5%; viability, T/C (second compound 0.00949 µM, first compound 0.316 µM): 95.5%; viability, T/C (second compound 0.00949 µM, first compound 1 µM): 95%; viability, T/C (second compound 0.00949 µM, first compound 3.16 µM): 88%; viability, T/C (second compound 0.00949 µM, first compound 10 µM): 67.5%; viability, T/C [9]: 101%; viability, T/C [10]: 102%; viability, T/C (second compound 0.03 µM, first compound 0.316 µM): 97.6%; viability, T/C (second compound 0.03 µM, first compound 1 µM): 93.3%; viability, T/C (second compound 0.03 µM, first compound 3.16 µM): 88.4%; viability, T/C (second compound 0.03 µM, first compound 10 µM): 64.3%; viability, T/C [11]: 101%; viability, T/C [12]: 93%; viability, T/C (second compound 0.0949 µM, first compound 0.316 µM): 108%; viability, T/C (second compound 0.0949 µM, first compound 1 µM): 104%; viability, T/C (second compound 0.0949 µM, first compound 3.16 µM): 90.6%; viability, T/C (second compound 0.0949 µM, first compound 10 µM): 58.6%; viability, T/C [13]: 95.8%; viability, T/C [14]: 104%; viability, T/C (second compound 0.3 µM, first compound 0.316 µM): 107%; viability, T/C (second compound 0.3 µM, first compound 1 µM): 96.8%; viability, T/C (second compound 0.3 µM, first compound 3.16 µM): 96.9%; viability, T/C (second compound 0.3 µM, first compound 10 µM): 68.4%; viability, T/C [15]: 104%; viability, T/C [16]: 89.5%; viability, T/C (second compound 0.949 µM, first compound 0.316 µM): 96.3%; viability, T/C (second compound 0.949 µM, first compound 1 µM): 91.2%; viability, T/C (second compound 0.949 µM, first compound 3.16 µM): 75.5%; viability, T/C (second compound 0.949 µM, first compound 10 µM): 66.3%; viability, T/C [17]: 75.2%; viability, T/C [18]: 67.3%; viability, T/C (second compound 3 µM, first compound 0.316 µM): 74.2%; viability, T/C (second compound 3 µM, first compound 1 µM): 73.1%; viability, T/C (second compound 3 µM, first compound 3.16 µM): 72.5%; viability, T/C (second compound 3 µM, first compound 10 µM): 64.8%
